Columns and labels:
Assay type in all cases: cell-based
[1] = tested on: Staphylococcus aureus SA1199; test: MIC, standard broth micro-dilution assay, SA 1199
Protocol: (§1) The antibacterial efficacy of the present compounds is illustrated by Table III. The minimal inhibitory concentrations (MICs) were determined using a standard broth micro-dilution assay.

[2] = tested on: Staphylococcus aureus 491; test: MIC, standard broth micro-dilution assay, SA 491
Protocol: as §1

Escherichia coli EC14 = test: MIC, standard broth micro-dilution assay, EC 14
Protocol: as §1

[3] = tested on: Staphylococcus aureus X778; test: MIC, standard broth micro-dilution assay, SA X778
Protocol: as §1

[4] = tested on: Staphylococcus aureus SA1199A; test: MIC, standard broth micro-dilution assay, SA 1199A
Protocol: as §1

[5] = tested on: Staphylococcus aureus 489; test: MIC, standard broth micro-dilution assay, SA 489
Protocol: as §1

[6] = tested on: Haemophilus influenzae RD; test: MIC, standard broth micro-dilution assay, HFRD
Protocol: as §1

[7] = tested on: Enterococcus faecalis 276; test: MIC, standard broth micro-dilution assay, EF 276
Protocol: as §1

[8] = tested on: Staphylococcus aureus S13E
Protocol: as §1

[9] = tested on: Staphylococcus aureus X400; test: MIC, standard broth micro-dilution assay, SA X400
Protocol: as §1

[10] = tested on: Sensitive Enterococcus faecium and faecalis; test: MIC, standard broth micro-dilution assay, Sensitive; conditions: geometric mean of 4-6 isolates
Protocol: as §1

[11] = tested on: Staphylococcus epidermidis 270; test: MIC, standard broth micro-dilution assay, SE 270
Protocol: as §1

Enterococcus faecium 180 = test: MIC, standard broth micro-dilution assay, EF 180
Protocol: as §1

[12] = tested on: Resistant Enterococcus faecium and faecalis; test: MIC, standard broth micro-dilution assay, Resistant; conditions: geometric mean of 4-6 isolates
Protocol: as §1

[13] = tested on: Enterococcus faecalis 2041; test: MIC, standard broth micro-dilution assay, EF 2041
Protocol: as §1

[14] = tested on: Staphylococcus haemolyticus 415; test: MIC, standard broth micro-dilution assay, SH 415
Protocol: as §1

[15] = tested on: Staphylococcus aureus 446; test: MIC, standard broth micro-dilution assay, SA 446
Protocol: as §1

[16] = tested on: Staphylococcus aureus 447; test: MIC, standard broth micro-dilution assay, SA 447
Protocol: as §1

[17] = tested on: Staphylococcus haemolyticus 105; test: MIC, standard broth micro-dilution assay, SH 105
Protocol: as §1

[18] = tested on: Enterococcus gallinarum 245; test: MIC, standard broth micro-dilution assay, EG 245
Protocol: as §1

[19] = tested on: Enterococcus faecium 180-1; test: MIC, standard broth micro-dilution assay, EF 180-1
Protocol: as §1

SMILES	minimal inhibitory concentration (MIC), SA 1199 [1]	minimal inhibitory concentration (MIC), SA 491 [2]	minimal inhibitory concentration (MIC), EC 14 (Escherichia coli EC14)	minimal inhibitory concentration (MIC), SA X778 [3]	minimal inhibitory concentration (MIC), SA 1199A [4]	minimal inhibitory concentration (MIC), SA 489 [5]	minimal inhibitory concentration (MIC), HFRD [6]	minimal inhibitory concentration (MIC), EF 276 [7]	minimal inhibitory concentration (MIC), SA S13E [8]	minimal inhibitory concentration (MIC), SA X400 [9]	minimal inhibitory concentration (MIC), Sensitive [10]	minimal inhibitory concentration (MIC), SE 270 [11]	minimal inhibitory concentration (MIC), EF 180 (Enterococcus faecium 180)	minimal inhibitory concentration (MIC), Resistant [12]	minimal inhibitory concentration (MIC), EF 2041 [13]	minimal inhibitory concentration (MIC), SH 415 [14]	minimal inhibitory concentration (MIC), SA 446 [15]	minimal inhibitory concentration (MIC), SA 447 [16]	minimal inhibitory concentration (MIC), SH 105 [17]	minimal inhibitory concentration (MIC), EG 245 [18]	other results
CC(C)CCC(=O)NC1C(=O)NC(CC(N)=O)C(=O)NC2C(=O)NC3C(=O)NC(C(=O)NC(C(=O)O)c4cc(O)cc(O)c4-c4cc3ccc4O)C(OC3CC(C)(N)C(O)C(C)O3)c3ccc(c(Cl)c3)Oc3cc2cc(c3OC2OC(CO)C(O)C(O)C2OC2CC(C)(NCc3ccc(-c4ccccc4)cc3)C(O)C(C)O2)Oc2ccc(cc2Cl)C1O (stereo not drawn) [Example 5, N^1-(4-methyl-n-pentanoyl)-N^DISACC-(p-phenylbenzyl)desleucylA82846B]	0.25	≦.06	>64	0.125	≦.06	0.125	>64	1	0.125	≦.06	0.44	0.25	4	27	≦.06	1	0.125	≦.06	≦.06	0.25	minimal inhibitory concentration (MIC), EF 180-1 [19]: ≦.06
CC1OC(OC2c3ccc(c(Cl)c3)Oc3cc4cc(c3OC3OC(CO)C(O)C(O)C3OC3CC(C)(NCc5ccc(-c6ccccc6)cc5)C(O)C(C)O3)Oc3ccc(cc3Cl)C(O)C(NC(=O)c3ccc(-c5ccccc5)cc3)C(=O)NC(CC(N)=O)C(=O)NC4C(=O)NC3C(=O)NC2C(=O)NC(C(=O)O)c2cc(O)cc(O)c2-c2cc3ccc2O)CC(C)(N)C1O (stereo not drawn) [Example 6, N^1-(p-phenylbenzoyl)-N^DISACC-(p-phenylbenzyl)desleucylA82846B]	0.5	0.5	>64	0.5	0.125	2	>64	2	1	1	3.5	0.5	2	38	2	2	1	2	0.5	1	minimal inhibitory concentration (MIC), EF 180-1 [19]: 0.25
CC(C)CCC(=O)NC1C(=O)NC(CC(N)=O)C(=O)NC2C(=O)NC3C(=O)NC(C(=O)NC(C(=O)O)c4cc(O)cc(O)c4-c4cc3ccc4O)C(OC3CC(C)(N)C(O)C(C)O3)c3ccc(c(Cl)c3)Oc3cc2cc(c3OC2OC(CO)C(O)C(O)C2OC2CC(C)(NCc3ccc(-c4ccc(Cl)cc4)cc3)C(O)C(C)O2)Oc2ccc(cc2Cl)C1O (stereo not drawn) [Example 7, N^1-(4-methyl-n-pentanoyl)-N^DISACC-[p-(p-chlorophenyl)benzyl]desleucylA82846B]	1	0.125	>64	1	≦.06	1	64	≦.06	0.5	0.5	0.22	≦.06	1	3.4	≦.06	1	0.5	0.5	≦.06	≦.06	minimal inhibitory concentration (MIC), EF 180-1 [19]: ≦.06
CC1OC(OC2c3ccc(c(Cl)c3)Oc3cc4cc(c3OC3OC(CO)C(O)C(O)C3OC3CC(C)(NCc5ccc(-c6ccc(Cl)cc6)cc5)C(O)C(C)O3)Oc3ccc(cc3Cl)C(O)C(NC(=O)CCCCCCCc3ccccc3)C(=O)NC(CC(N)=O)C(=O)NC4C(=O)NC3C(=O)NC2C(=O)NC(C(=O)O)c2cc(O)cc(O)c2-c2cc3ccc2O)CC(C)(N)C1O (stereo not drawn) [Example 8, N^1-(8-phenyl-n-octanoyl)-N^DISACC-[p-(p-chlorophenyl)benzyl]desleucylA82846B]	4	4	>64	4	2	8	>64	1	8	8	2	8	2	4	2	8	16	8	2	2	minimal inhibitory concentration (MIC), EF 180-1 [19]: 1
CC1OC(OC2c3ccc(c(Cl)c3)Oc3cc4cc(c3OC3OC(CO)C(O)C(O)C3OC3CC(C)(NCc5ccc(-c6ccc(Cl)cc6)cc5)C(O)C(C)O3)Oc3ccc(cc3Cl)C(O)C(NC(=O)CCCCCCNC(=O)OC(C)(C)C)C(=O)NC(CC(N)=O)C(=O)NC4C(=O)NC3C(=O)NC2C(=O)NC(C(=O)O)c2cc(O)cc(O)c2-c2cc3ccc2O)CC(C)(N)C1O (stereo not drawn) [Example 9, N^1- [7-(tert-butoxycarboxamido)-n-heptanoyl]-N^DISACC-[p-(p-chlorophenyl)benzyl]desleucylA82846B]	1	1	>64	1	0.25	1	>64	1	1	2	0.66	1	2	4.8	0.5	1	2	2	0.5	1	minimal inhibitory concentration (MIC), EF 180-1 [19]: 0.5
CC(C)CC(NC(=O)OC(C)(C)C)C(=O)NC1C(=O)NC(CC(N)=O)C(=O)NC2C(=O)NC3C(=O)NC(C(=O)NC(C(=O)O)c4cc(O)cc(O)c4-c4cc3ccc4O)C(OC3CC(C)(N)C(O)C(C)O3)c3ccc(c(Cl)c3)Oc3cc2cc(c3OC2OC(CO)C(O)C(O)C2OC2CC(C)(NCc3ccc(-c4ccccc4)cc3)C(O)C(C)O2)Oc2ccc(cc2Cl)C1O [Example 11, N^1-(N-BOC-L-leucine) derivative of N^DISACC-(p-phenylbenzyl)desleucylA82846B]	1	2	>64	0.5	1	2	>64	2	1	1	1.7	0.5	8	45	1	1	1	1	0.5	1	minimal inhibitory concentration (MIC), EF 180-1 [19]: 0.25

— patent US6670446B1, “N1 modified glycopeptides” (Eli Lilly and Company, priority 1998, dated 2003)
